The source of these data is patent US20250311727A1, “SUBSTITUTED 2-AMINOAZINES AND SALTS THEREOF, AND USE THEREOF AS HERBICIDAL ACTIVE SUBSTANCES” (BAYER AKTIENGESELLSCHAFT, priority 2022, published 2025).

Format in all cases: in vivo
The test system of test [1] is Kochia scoparia. The test is described as follows: Pre-emergence herbicide efficacy at 80 g/ha, KCHSC. The settings on record: scored visually after about 3 weeks vs untreated controls, 100% = plants have died. The method in brief:
(§1)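 Visual % activity scored after roughly 3 weeks in the greenhouse against untreated pots, 100% meaning dead plants and 0% like controls. Treatment was soil-surface application right after sowing, at 80 g/ha. Formulated as WP or EC in water at 600 l/ha with 0.5% additive.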

Test [2] has as its system Setaria viridis. As to the kind of experiment: Post-emergence herbicidal efficacy at 80 g/ha, SETVI. Particulars: rated visually after about 3 weeks vs untreated controls, 100% = plants have died. From the text: (§2) Unwanted plants/weeds: • ABUTH: Abutilon theophrasti • ALOMY: Alopecurus myosuroides • AMARE: Amaranthus retroflexus • DIGSA: Digitaria sanguinalis • ECHCG: Echinochloa crus-galli • KCHSC: Kochia scoparia • LOLRI: Lolium rigidum • MATIN: Matricaria inodora • POAAN: Poa annua • POLCO: Polygonum convolvulus • SETVI: Setaria viridis • STEME: Stellaria media • VERPE: Veronica persica • VIOTR: Viola tricolor A. Post-Emergence Herbicidal Efficacy at 320 g/ha
(§3) Seeds of monocotyledonous and dicotyledonous weeds and crop plants were placed in sandy loam in plastic or organic planting pots, covered with soil and cultivated in a greenhouse under controlled growth conditions. 2 to 3 weeks after sowing, the test plants were treated at the one-leaf stage. The compounds of the invention, formulated in the form of wettable powders (WP) or as emulsion concentrates (EC), were then sprayed onto the green parts of the plants as aqueous suspension or emulsion with addition of 0.5% additive at a water application rate of 600 l/ha (converted). After the test plants had been kept in the greenhouse under optimum growth conditions for about 3 weeks, the activity of the preparations was rated visually in comparison to untreated controls. For example, 100% activity=the plants have died, 0% activity=like control plants.
(§4) Tables B1 to B11 below show the effects of selected compounds of the general formula (I) according to Table 1 on various harmful plants and an application rate corresponding to 80 g/ha, which were obtained by the experimental procedure mentioned above.

For test [3], the system named is Kochia scoparia. As to the kind of experiment: Post-emergence herbicidal efficacy at 80 g/ha, KCHSC. Particulars: rated visually after about 3 weeks vs untreated controls, 100% = plants have died. The method in brief: (§5)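 Visual rating against untreated plants, about 3 weeks after treatment, on a 0–100% scale where 100% means dead plants. Compounds were formulated as WP or EC with 0.5% additive and applied at 600 l/ha water onto one-leaf-stage greenhouse weeds, sown 2–3 weeks earlier in sandy loam.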

Test [4] has as its system Digitaria sanguinalis. The test is described as follows: Post-emergence herbicidal efficacy at 80 g/ha, DIGSA. Particulars: rated visually after about 3 weeks vs untreated controls, 100% = plants have died.
From the text: as §2, §3, §4

Test [5] relates to Viola tricolor. As to the kind of experiment: Pre-emergence herbicide efficacy at 80 g/ha, VIOTR. In short, it runs like this:
as §1

Test [6] has as its system Lolium rigidum. The test is described as follows: Pre-emergence herbicide efficacy at 80 g/ha, LOLRI. The settings on record: scored visually after about 3 weeks vs untreated controls, 100% = plants have died.
From the text: as §2
Seeds of monocotyledonous and dicotyledonous weed plants and crop plants were placed in plastic or organic planting pots and covered with soil. The compounds of the invention, formulated in the form of wettable powders (WP) or as emulsion concentrates (EC), were then applied to the surface of the covering soil as aqueous suspension or emulsion with addition of 0.5% additive at a water application rate equivalent to 600 l/ha. After the treatment, the pots were placed in a greenhouse and kept under good growth conditions for the test plants. After about 3 weeks, the efficacy of the preparations was scored visually in comparison with untreated controls as percentages. For example, 100% activity=the plants have died, 0% activity=like control plants. […]

Test [7] has as its system Veronica persica. The test is described as follows: Pre-emergence herbicide efficacy at 80 g/ha, VERPE. The method in brief: as §1
Test [8] has as its system Viola tricolor. The test is described as follows: Post-emergence herbicidal efficacy at 80 g/ha, VIOTR. Particulars: rated visually after about 3 weeks vs untreated controls, 100% = plants have died. In short, it runs like this:
as §5

Test [9] deals with Veronica persica. The test is described as follows: Post-emergence herbicidal efficacy at 80 g/ha, VERPE. Particulars: rated visually after about 3 weeks vs untreated controls, 100% = plants have died. In short, it runs like this: as §5
Test [10] deals with Digitaria sanguinalis. The test is described as follows: Pre-emergence herbicide efficacy at 80 g/ha, DIGSA. The settings on record: scored visually after about 3 weeks vs untreated controls, 100% = plants have died. The method in brief: as §1
In test [11] the test system is Polygonum convolvulus. As to the kind of experiment: Pre-emergence herbicide efficacy at 80 g/ha, POLCO. The settings on record: scored visually after about 3 weeks vs untreated controls, 100% = plants have died. In short, it runs like this: as §1
For test [12], the system named is Abutilon theophrasti. As to the kind of experiment: Pre-emergence herbicide efficacy at 80 g/ha, ABUTH. The settings on record: scored visually after about 3 weeks vs untreated controls, 100% = plants have died. In short, it runs like this: as §1
Test [13] concerns Abutilon theophrasti. As to the kind of experiment: Post-emergence herbicidal efficacy at 80 g/ha, ABUTH. The settings on record: rated visually after about 3 weeks vs untreated controls, 100% = plants have died.
From the text: as §2, §3, §4

The subject of test [14] is Echinochloa crus-galli. As to the kind of experiment: Post-emergence herbicidal efficacy at 80 g/ha, ECHCG. Particulars: rated visually after about 3 weeks vs untreated controls, 100% = plants have died.
From the text: as §2, §3, §4

Test [15] relates to Echinochloa crus-galli. As to the kind of experiment: Pre-emergence herbicide efficacy at 80 g/ha, ECHCG. Particulars: scored visually after about 3 weeks vs untreated controls, 100% = plants have died. The method in brief: as §1
Test [16] relates to Amaranthus retroflexus. The test is described as follows: Pre-emergence herbicide efficacy at 80 g/ha, AMARE. Particulars: scored visually after about 3 weeks vs untreated controls, 100% = plants have died. The method in brief: as §1
Test [17] relates to Alopecurus myosuroides. As to the kind of experiment: Pre-emergence herbicide efficacy at 80 g/ha, ALOMY. Particulars: scored visually after about 3 weeks vs untreated controls, 100% = plants have died.
From the text: as §2
Seeds of monocotyledonous and dicotyledonous weed plants and crop plants were placed in plastic or organic planting pots and covered with soil. The compounds of the invention, formulated in the form of wettable powders (WP) or as emulsion concentrates (EC), were then applied to the surface of the covering soil as aqueous suspension or emulsion with addition of 0.5% additive at a water application rate equivalent to 600 l/ha. After the treatment, the pots were placed in a greenhouse and kept under good growth conditions for the test plants. After about 3 weeks, the efficacy of the preparations was scored visually in comparison with untreated controls as percentages. For example, 100% activity=the plants have died, 0% activity=like control plants.
Tables D1 to D12 below show the effects of selected compounds of the general formula (I) according to Table 1 on various harmful plants and an application rate corresponding to 80 g/ha, which were obtained by the experimental procedure mentioned above.

Test [18] concerns Setaria viridis. The test is described as follows: Pre-emergence herbicide efficacy at 80 g/ha, SETVI. The method in brief: as §1
Test [19] relates to Amaranthus retroflexus. The test is described as follows: Post-emergence herbicidal efficacy at 80 g/ha, AMARE. The settings on record: rated visually after about 3 weeks vs untreated controls, 100% = plants have died. In short, it runs like this: as §5
The test system of test [20] is Matricaria inodora. As to the kind of experiment: Pre-emergence herbicide efficacy at 80 g/ha, MATIN. The settings on record: scored visually after about 3 weeks vs untreated controls, 100% = plants have died. In short, it runs like this: as §1
For test [21], the system named is Polygonum convolvulus. As to the kind of experiment: Post-emergence herbicidal efficacy at 80 g/ha, POLCO. The settings on record: rated visually after about 3 weeks vs untreated controls, 100% = plants have died.
From the text: as §2
as §3, with “plants. […]” for “plants.”

For test [22], the system named is PHBPU. As to the kind of experiment: Post-emergence herbicidal efficacy at 80 g/ha, PHBPU. The settings on record: rated visually after about 3 weeks vs untreated controls, 100% = plants have died. On the procedure:
as §3, with “plants. Tables B1 to B11 below show the effects of selected compounds of the general formula (I) according to Table 1 on various harmful plants and an application rate corresponding to 80 g/ha, which were obtained by the experimental procedure mentioned above.” for “plants.”

For `Fc1cnc(Nc2cccc(Cl)c2-c2cc(C(F)F)no2)nc1` [Example 1-62], the “Pre-emergence efficacy at 80 g/ha against KCHSC in %” value in test [1] stood at 100%. The “Post-emergence efficacy at 80 g/ha against SETVI in %” value in [2] is listed as 100%. Besides, the “Post-emergence efficacy at 80 g/ha against KCHSC in %” value in test [3] worked out at 100%. For the same compound, in test [4], the “Post-emergence efficacy at 80 g/ha against DIGSA in %” value was 80%. Moreover, the “Pre-emergence efficacy against VIOTR” value in [5] was determined as 100%. Moreover, the “Pre-emergence efficacy at 80 g/ha against LOLRI in %” value in test [6] turned out to be 100%. Besides, the “Pre-emergence efficacy against VERPE” value in [7] was 100%. The “Post-emergence efficacy at 80 g/ha against VIOTR in %” value in test [8] is 100%. Moreover, in test [9], the “Post-emergence efficacy at 80 g/ha against VERPE in %” value is 100%. Moreover, in test [10], the “Pre-emergence efficacy at 80 g/ha against DIGSA in %” value is on record as 100%. Also, the “Pre-emergence efficacy at 80 g/ha against POLCO in %” value in test [11] is on record as 80%. Also, the “Pre-emergence efficacy at 80 g/ha against ABUTH in %” value in test [12] came to 100%. For the same compound, the “Post-emergence efficacy at 80 g/ha against ABUTH in %” value in test [13] came to 90%. Also, the “Post-emergence efficacy at 80 g/ha against ECHCG in %” value in test [14] is 80%. Besides, in [15], the “Pre-emergence efficacy at 80 g/ha against ECHCG in %” value was 100%. For the same compound, in test [16], the “Pre-emergence efficacy at 80 g/ha against AMARE in %” value is reported as 100%. The “Pre-emergence efficacy at 80 g/ha against ALOMY in %” value in test [17] is 100%. Further, in test [18], the “Pre-emergence efficacy against SETVI” value is on record as 100%. For the same compound, in test [19], the “Post-emergence efficacy at 80 g/ha against AMARE in %” value came to 100%.

Consider `FC(F)c1cc(-c2c(Cl)cccc2Nc2ncc(Cl)cn2)on1` [Example 1-61], for which the “Pre-emergence efficacy at 80 g/ha against KCHSC in %” value in test [1] turned out to be 100%. Also, the “Pre-emergence efficacy at 80 g/ha against MATIN in %” value in test [20] is on record as 100%. For the same compound, the “Post-emergence efficacy at 80 g/ha against SETVI in %” value in test [2] amounted to 100%. Further, the “Post-emergence efficacy at 80 g/ha against KCHSC in %” value in test [3] is on record as 100%. Also, in test [21], the “Post-emergence efficacy at 80 g/ha against POLCO in %” value is recorded as 100%. Moreover, the “Post-emergence efficacy at 80 g/ha against DIGSA in %” value in [4] is on record as 100%. For the same compound, in test [5], the “Pre-emergence efficacy against VIOTR” value is 100%. The “Pre-emergence efficacy at 80 g/ha against LOLRI in %” value in [6] stood at 90%. The “Pre-emergence efficacy against VERPE” value in test [7] is recorded as 90%. In addition, in test [8], the “Post-emergence efficacy at 80 g/ha against VIOTR in %” value came to 100%. Also, the “Post-emergence efficacy at 80 g/ha against VERPE in %” value in test [9] is given as 100%. Also, the “Pre-emergence efficacy at 80 g/ha against DIGSA in %” value in test [10] stood at 100%. Moreover, in [11], the “Pre-emergence efficacy at 80 g/ha against POLCO in %” value worked out at 80%. The “Pre-emergence efficacy at 80 g/ha against ABUTH in %” value in test [12] came to 90%. In addition, the “Post-emergence efficacy at 80 g/ha against ABUTH in %” value in test [13] was 100%. In [14], the “Post-emergence efficacy at 80 g/ha against ECHCG in %” value stood at 100%. For the same compound, the “Pre-emergence efficacy at 80 g/ha against ECHCG in %” value in test [15] amounted to 100%. In addition, in test [16], the “Pre-emergence efficacy at 80 g/ha against AMARE in %” value was 100%. In addition, the “Pre-emergence efficacy at 80 g/ha against ALOMY in %” value in [17] worked out at 90%. Moreover, the “Post-emergence efficacy at 80 g/ha against PHBPU in %” value in test [22] is on record as 100%. Further, in test [18], the “Pre-emergence efficacy against SETVI” value is on record as 100%. Also, the “Post-emergence efficacy at 80 g/ha against AMARE in %” value in test [19] came out at 100%.
